# From patent US20140050779A1, “[…]-2 INHIBITORS AND USES THEREOF” (SINGAPORE HEALTH SERVICES PTE. LTD., priority 2011, published 2014)
# Columns and labels:
# [1] = test system: cultured SF cells; assay: effect of TG-2 inhibitors on cultured scleral fibroblast growth (XCELLigence); type: cell-based; details: for SF cell growth and cell numbers: 0.1 μM, 5 days; for SF cell growth and cell numbers at higher concentrations: above 0.1 μM, concentration dependent manner
# Procedure: To test the effect of TG-2 inhibitors on cultured scleral fibroblast growth, cultured SF cells at passage 4 were treated with TG-2 inhibitors at baseline, 0.1, 1, 10 and 100 μM for 5 days. The SF cell growth was monitored by XCELLigence cell impedance.
# [2] = test system: TG-2; assay: TG-2 colorimetric microassay (transamidase activity) in lysate of treated mouse scleral fibroblasts; type: cell-based; details: for transamidase activity of endogenous cellular TG-2: mouse scleral fibroblasts, 0.1, 1, 10 and 100 μM for 5 days, concentration-dependent
# Procedure: (§1) All cells used in examples described herein were between passages 2-4. Passaged cells were plated at a concentration of 2×10^5/mL into 6 well plates containing DMEM with 10% FBS. […] Old media was removed from wells and 1 mL of drug was added with fresh full medium and incubated at 37° C. Fresh drugs were replaced daily consecutively for the next 5 days to avoid oxidation. The drugs/media was removed and wells were washed twice with 1×PBS. 200 μl of RIPA lysis buffer was added per well and incubated for 5 minutes and cells were scrapped into an eppendorf tube. The cells were stored at −20° C. until sonication. The cells were sonicated on ice thrice at 20% output power for 5 seconds each time and rested 1 minute in between each turn. Cell debris was spun down at 12000 rpm for 20 minutes. The supernatant was poured into a new eppendorf tube and cell concentrations were determined using the Dc Protein assay Kit (Bio-Rad, MA). Passaged cells were plated at a concentration of 1×10^5 into 6 well plates containing DMEM with 10% FBS. […] Freshly prepared muscarinic agents' at base line, 0.1, 1, 10 and 100 μM concentrations were added for 5 days (Table 2). The culture medium was removed and fresh medium containing the same muscarinic drug added every day to avoid drug changes such as atropine oxidation. Cell lysate was collected for relative quantitative (q) PCR and protein analysis at day 5.
# (§2) This assay was designed to assess the cross-linking activity of TG-2 between two proteins. TG activity was measured with TG-2 colorimetric Microassay kit (TG-Covtest, Covalab, Cambridge, UK). 150-200 μg of total protein was used per well for the TG-2 assay. Transglutaminase standards (Sigma) were used as a positive control. EDTA was used to inhibit the enzyme activity as a negative control.
# (§3) The approximate volume of reagents to use, the wavelengths to use to read absorbance, the incubation times were determined from a previous study that have carried out experiments with similar principles as described in Perez Alea M, Kitamura M, Martin G, Thomas V, Hitomi K, El Alaoui S., “Development of an isoenzyme-specific colorimetric assay for tissue transglutaminase 2 cross-linking activity”, Anal Biochem. 2009 Jun. 15; 389(2):150-6, Epub 2009 March 24. All reagents used and protein coated plates were part of the kit. Biotin cadaverine was reconstituted with 6 ml of deionized water and 90 μl was added into each well of the 96 well plate that comes coated with CBZ-GLN-GLY. The rest of the steps were followed as in the manufacturer's instructions and finally absorbance was read at 450 nm using a microplate reader (TECAN, Austria). All incubations were performed with gentle shaking on a laboratory orbital shaker.
# (§4) The TG-2 colorimetric assay serves as a high throughput and quantitative assay to assess transamidase activity. […] In vivo studies with these drugs were also conducted to determine the effect on myopia development (see FIGS. 14 and 15).
# [3] = test system: TG-2; assay: TG-2 colorimetric microassay (transamidase activity) in lysate of treated human scleral fibroblasts; type: cell-based; details: for transamidase activity of endogenous cellular TG-2: human scleral fibroblasts, 0.1, 1, 10 and 100 μM for 5 days, concentration-dependent
# Procedure: as §1, §2, §3, §4
# [4] = test system: TG-2; assay: Western blot of TG proteins in mouse scleral fibroblasts after muscarinic agents; type: cell-based; details: very low concentrations
# Procedure: (§5) All cells used in examples described herein were between passages 2-4. Passaged cells were plated at a concentration of 2×10^5/mL into 6 well plates containing DMEM with 10% FBS. The cells were seen to attach to the bottom of the culture wells after 4 hours. Old media was removed from wells and 1 mL of drug was added with fresh full medium and incubated at 37° C. Fresh drugs were replaced daily consecutively for the next 5 days to avoid oxidation. The drugs/media was removed and wells were washed twice with 1×PBS. 200 μl of RIPA lysis buffer was added per well and incubated for 5 minutes and cells were scrapped into an eppendorf tube. The cells were stored at −20° C. until sonication. The cells were sonicated on ice thrice at 20% output power for 5 seconds each time and rested 1 minute in between each turn. Cell debris was spun down at 12000 rpm for 20 minutes. The supernatant was poured into a new eppendorf tube and cell concentrations were determined using the Dc Protein assay Kit (Bio-Rad, MA). Passaged cells were plated at a concentration of 1×10^5 into 6 well plates containing DMEM with 10% FBS. The cells were seen to attach to the bottom of the culture wells after 4 hours. Freshly prepared muscarinic agents' at base line, 0.1, 1, 10 and 100 μM concentrations were added for 5 days (Table 2). The culture medium was removed and fresh medium containing the same muscarinic drug added every day to avoid drug changes such as atropine oxidation. Cell lysate was collected for relative quantitative (q) PCR and protein analysis at day 5.
# (§6) The cells were lysed by sonification in 1×RIPA lysis buffer (santa cruz biotechnology, Sc-24948) with 10 μl PMSF solution, 10 μl sodium orthovanadate solution and 20 μl protease inhibitor cocktail solution. After centrifugation at 20,000×g at 4° C. for 20 minutes, and the supernatant collected. The protein content in the supernatants was measured using the DC Protein Assay kit (Bio-Rad, MA) following the manufacturer's instructions. Samples were stored at −80° C. until assayed.
# (§7) The mouse and human scleral fibroblasts were treated with atropine or carbachol at 0.01, 0.1, 1, 5 and 10 μM concentrations for 5 days. Following 5 days of treatment, the total cellular protein was extracted from these cells and TG proteins detected via Western blot analysis.
# Human and, mouse scleral fibroblast proteins in the supernatant were separated by SDS-PAGE, transferred to nitrocellulose membranes, blocked in 5% BSA in TBST (10 mM Tris-HCl [pH 8.0], 150 mM NaCl, and […] Tween-20) for 2 hours at room temperature, and incubated with the same anti-TG-2 antibody described herein at a dilution of 1:1000 and anti β-tubulin antibodies used as a positive control, for 1 hour at room temperature. The membranes were washed 3 times in TBST and incubated with HRP-conjugated secondary antibody (Chemicon International) at a dilution of 1:2500 for 1 hour at room temperature. Immunoreactive bands were visualized using the enhanced chemiluminescence method (GE Healthcare, Buckinghamshire, UK). The membrane was wrapped in plastic and placed against an X-ray film to expose for an appropriate length of time (30 seconds-5 minutes).
# [5] = test system: TG-2; assay: Western blot of TG proteins in human scleral fibroblasts after muscarinic agents; type: cell-based; details: very low concentrations
# Procedure: as §5, §6, §7
# Human and, mouse scleral fibroblast proteins in the supernatant were separated by SDS-PAGE, transferred to nitrocellulose membranes, blocked in 5% BSA in TBST (10 mM Tris-HCl [pH 8.0], 150 mM NaCl, and […] Tween-20) for 2 hours at room temperature, and incubated with the same anti-TG-2 antibody described herein at a dilution of 1:1000 and anti β-tubulin antibodies used as a positive control, for 1 hour at room temperature. […]
# [6] = test system: mouse eyes treated with −15D spectacle lens; assay: spectacle lens-induced myopia in mice, axial length and refractive error; type: in vivo; details: lens with 0.1% drug; for axial length: 2 weeks and 4 weeks, vs lens treated eyes; for refractive error: infrared photorefractor
# Procedure: Topical applications were administered to both eyes at the same time each day (approximately 9:00 AM) commencing on the 12th day (initiation of spectacle lens treatment). A compatible drug level was determined prior to the in vivo use in a tissue culture study with mouse scleral fibroblasts. […] This treatment schedule continued for four weeks starting on post-natal day 12 continued until post-natal day 42. All measurements were taken at post-natal day 42, the equivalent of 4 weeks of spectacle lens wear.
# Each eye was refracted every week to measure the refractive error using automated infrared photorefraction as described in Barathi, V. A., Beuerman, R. W., Schaeffel, F., 2009a, “Effects of unilateral topical atropine on binocular pupil responses and eye growth in mice”, Vision Res 49, 383-387. By using Optical Low Coherence Interferometry (OLCI, AC Master, Carl-Zeiss), the axial length of the eye was measured in-vivo as described in Yin G C, Gentle A, McBrien N A, “Muscarinic antagonist control of myopia: a molecular search for the M1 receptor in chick”, Mol. Vis. 2004; 13(10):787-93 and Barathi, V. A., Boopathi, V. G., Yap, E. P., Beuerman, R. W., 2008, “Two models of experimental myopia in the mouse”, Vision Res 48, 904-916. […] Differences of refractive power and axial length between eyes were calculated. Independent t-tests were used to compare experimental and control eyes in wild type and TGM2-deleted or M1-M5 mutant mice.
# Right eyes were experimental and left eyes served as contra-lateral control. In vivo axial length was measured at 2 weeks and 4 weeks after treatment. […] Automated infrared photorefractor was used to measure the refractive error measurements.
Compound,SF cell growth and cell numbers [1],SF cell growth and cell numbers at higher concentrations [1],transamidase activity of endogenous cellular TG-2 [2],transamidase activity of endogenous cellular TG-2 [3],TG-2 protein level (reduction) [4],TG-2 protein level (reduction) [5],axial length [6],refractive error [6],other results
CC(=O)CSc1n(C)cc[n+]1C.[Cl-] [D003],significantly reduced,further reduced,–,–,–,–,–,–,cell morphology [1]: No change
"C[N+]1(C)CCC(OC(=O)C(c2ccccc2)c2ccccc2)CC1.[I-] [4-DAMP, 1,1-Dimethyl-4-diphenylacetoxypiperidinium iodide]",–,–,reduced,reduced,significant,significant,significantly reduced,shifted from myopic to hyperoic,–
NC(=O)C(c1ccccc1)(c1ccccc1)[C@@H]1CCN(CCc2ccc3c(c2)CCO3)C1 [darifenacin],–,–,reduced,reduced,significant,significant,significantly reduced,shifted from myopic to hyperoic,"TG-2 activity, strongest reduction among the antagonists ([2]; mouse scleral fibroblasts, low concentrations): most significantly reduced; TG-2 activity, strongest reduction among the antagonists ([3]; human scleral fibroblasts, all concentrations): most significantly reduced; TG-2 activity, strongest reduction among the antagonists ([3]; human scleral fibroblasts, low concentrations): most significantly reduced; TG-2 activity as compared to atropine ([3]; human scleral fibroblasts, himbacine 0.1, 1, 10 & 100 μM, darifenacin 0.1, 1 & 10 μM): more significantly reduced"
TAMRA-DON [R002],significantly reduced,further reduced,–,–,–,–,–,–,–
CN1CCN(CC(=O)N2c3ccccc3C(=O)Nc3cccnc32)CC1 [pirenzepine],–,–,reduced,reduced,–,–,–,–,–
CCN(CC)CC1CCCCN1CC(=O)N1c2ccccc2C(=O)Nc2cccnc21 (stereo not shown) [AFDX-116],–,–,reduced,reduced,–,–,–,–,–
